Values joined by “and” are separate entries in the source; they are usually repeats but may differ in a detail not shown here. Equal values may be shown once.
Experiments:
Interleukin IL-1 = Interleukin IL-1 (Mus musculus, UniProt P13504); test: Eurofins panel 243520; assay type: binding
[1] = tested on: Glutamate, NMDA, Phencyclidine; test: Eurofins panel 233000; assay type: binding, rat; conditions: 10 µM
[2] = tested on: primary human dermal fibroblasts; test: qPCR COL1A1 and LOX gene expression; assay type: cell-based; set-up: key to qPCR COLIAI / qPCRLOX: relative expression by 2^−ΔΔCt, GAPDH/PGK1 housekeeping
Description: Changes in COL1A1 and LOX gene expression in PXS-4787 treated cells were done using primary human dermal fibroblasts (50,000) seeded in a 6-well plate under Scar-in-a-jar media. The cells were incubated with 0 µM, 1 µM, and 10 µM PXS-4787 treatment for 48 h. mRNA was extracted using RNeasy mini kit® according to the manufacturer’s protocol (Qiagen Gmbh). The total concentration and purity of RNA were determined using a NAnodrop 2000C (Thermo Scientific, USA). For reverse transcription, mRNA was converted to cDNA using QuantiTect Reverse Transcription kit (Qiagen; Catalog no. 205311) according to the manufacturer’s protocol. Quantitative real-time RT-PCR was conducted using SYBR Green Master Mix (Qiagen; Catalog no. 204143) and Rotor gene Q thermocycler (Qiagen). The reactions were carried out in triplicate in 20 µl total volume containing 1 µl cDNA and 2 µl primers. The QuantiTect Primer assay for COL1A1 (Catalog no. QT00037793), LOX (Catalog no. QT00017311) were used. GAPDH (Catalog no. QT00079247) and PGK1 (Catalog no. 249900) were used as a housekeeping gene. The data were analyzed using Rotor geneQ software and the relative gene expression was calculated using the 2−^(∆∆c (t)) method. Three biological samples were used for each condition.

lysyl oxidases = test: Time-dependency of inhibition (pre-incubation times); assay type: biochemical; set-up: Fig. 2B activity: scale not given here
Source text: PXS-4787 competes with a model substrate (putrescine) for the LOX binding site (Fig. 2d). The allylamine of PXS-4787 interacts with the co-factor of the enzyme and elicits mechanism-based inhibition (Fig. 2e). Through careful optimization, and in contrast to BAPN, PXS-4787 selectivity targets lysyl oxidases and is neither an inhibitor of, nor a substrate for, related oxidases (Fig. 2f, g and Supplementary Table S1). Furthermore, PXS-4787 was clean when profiled in a broad panel of macromolecular targets using enzyme and radioligand binding assays (LeadProfilingScreen, Eurofins CEREP Panlabs, 68 assays, test concentration 10 µM; Supplementary Data S1).
Data are expressed as mean ± SEM. Subsequent statistical analysis was performed with unpaired two-sided Student’s t tests. *p < 0.05, **p < 0.01, ***p < 0.001and ****p < 0.0001. Source data are provided as a Source Data file.
The measurement of the enzymatic activity of all lysyl oxidase family members was based on the detection of hydrogen peroxide with an Amplex-Red oxidation assay, as previously described; miniaturized in 384 well formats, with the appropriate combination of substrate and assay buffer for each individual enzyme. After a 30 min pre-incubation of the enzyme at 37 °C with the test compound (or with different incubation times for the time-dependency assay), one volume of reaction mixture containing 120 μM Amplex Red (AR) (Life Technologies), 1.5 U/mL horseradish peroxidase (HRP) (Sigma-Aldrich) and the specific substrate was added to each sample. The relative fluorescence units (RFU) were then measured every 2.5 min for 30 min at 37 °C, excitation 565 nm and emission 590, on a BMG Clariostar Microplate Reader. All the substrates were used at concentrations corresponding to their Km towards the corresponding enzyme, or with a range of different concentrations for the substrate competition experiments.

Phorbol Ester = test: Eurofins panel 264500; assay type: binding, mouse; conditions: 10 µM
Adenosine A3 = Adenosine A3 (Homo sapiens, UniProt P0DMS8); test: Eurofins panel 200720; assay type: binding
[3] = tested on: primary dermal fibroblasts; test: Procollagen I FRET measurement, scar-in-a-jar; assay type: cell-based, human; conditions: highest dose (10 µM)
Vasopressin V1A = Vasopressin V1A (Homo sapiens, UniProt P37288); test: Eurofins panel 287530; assay type: binding
Vasopressin V1A, sequence (P37288 whole entry): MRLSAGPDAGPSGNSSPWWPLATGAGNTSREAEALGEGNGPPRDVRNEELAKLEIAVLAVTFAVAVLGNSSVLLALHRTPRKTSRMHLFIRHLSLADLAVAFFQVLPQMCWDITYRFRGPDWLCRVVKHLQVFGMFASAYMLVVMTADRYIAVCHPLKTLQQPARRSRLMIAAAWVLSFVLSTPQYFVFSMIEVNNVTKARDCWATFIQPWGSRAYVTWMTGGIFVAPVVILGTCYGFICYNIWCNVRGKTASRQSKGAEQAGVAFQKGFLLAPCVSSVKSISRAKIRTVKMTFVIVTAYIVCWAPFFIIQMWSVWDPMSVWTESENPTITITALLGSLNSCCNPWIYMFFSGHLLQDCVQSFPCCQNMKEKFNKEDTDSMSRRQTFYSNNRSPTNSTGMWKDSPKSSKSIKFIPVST

Interleukin IL-1, sequence (P13504 20-576): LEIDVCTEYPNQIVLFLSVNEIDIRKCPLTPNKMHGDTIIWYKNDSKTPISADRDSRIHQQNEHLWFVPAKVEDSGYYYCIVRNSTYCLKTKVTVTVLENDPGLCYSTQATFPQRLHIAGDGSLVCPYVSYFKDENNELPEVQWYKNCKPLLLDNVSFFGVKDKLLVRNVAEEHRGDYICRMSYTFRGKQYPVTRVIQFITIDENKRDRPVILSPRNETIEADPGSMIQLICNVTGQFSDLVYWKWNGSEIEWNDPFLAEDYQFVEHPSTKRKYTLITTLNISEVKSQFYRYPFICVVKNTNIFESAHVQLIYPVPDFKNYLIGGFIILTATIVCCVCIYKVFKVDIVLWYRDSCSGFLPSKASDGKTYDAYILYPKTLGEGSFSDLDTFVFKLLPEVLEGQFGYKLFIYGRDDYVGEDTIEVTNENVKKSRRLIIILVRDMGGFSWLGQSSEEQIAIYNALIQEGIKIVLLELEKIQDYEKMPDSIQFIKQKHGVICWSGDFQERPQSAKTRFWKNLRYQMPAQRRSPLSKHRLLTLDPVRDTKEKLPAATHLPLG
Adenosine A3, sequence (P0DMS8 whole entry): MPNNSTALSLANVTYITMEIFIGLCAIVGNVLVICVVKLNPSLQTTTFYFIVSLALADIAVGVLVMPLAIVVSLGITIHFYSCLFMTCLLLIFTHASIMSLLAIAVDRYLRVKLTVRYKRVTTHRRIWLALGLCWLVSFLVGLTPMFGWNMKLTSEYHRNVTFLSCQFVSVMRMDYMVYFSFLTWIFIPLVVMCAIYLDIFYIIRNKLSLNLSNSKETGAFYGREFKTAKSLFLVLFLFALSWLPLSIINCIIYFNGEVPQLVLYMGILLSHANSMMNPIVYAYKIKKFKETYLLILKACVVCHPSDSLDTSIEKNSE

## NC/C=C(\F)CS(=O)(=O)c1ccccc1 [PXS-4787]
Interleukin IL-1
  inhibition at 10 µM: 7%
[1]
  % Inh.: 8%
[2]; 0, 1, 10 µM, 48 h
  COL1A1 or LOX RNA levels: No change
[2]; 1μM
  qPCR COLIAI: 0.9946 and 1.0482 and 1.0167
  qPCRLOX: 1.068 and 1.006 and 0.9855
[2]; 10 µM
  qPCR COLIAI: 0.9655 and 0.9268 and 1.013
  qPCRLOX: 0.9777 and 0.8786 and 0.9515
Lysyl oxidases
  potency versus pre-incubation time: increased potency upon longer pre-incubation times
Lysyl oxidases; 1.69333e-10, pre-incubation 0 min
  Fig. 2B activity: 106.286
Lysyl oxidases; 1.69333e-10, pre-incubation 15 min
  Fig. 2B activity: 104.086
Lysyl oxidases; 1.69333e-10, pre-incubation 30 min
  Fig. 2B activity: 108.652
Lysyl oxidases; 1.69333e-10, pre-incubation 1 h
  Fig. 2B activity: 105.245
Lysyl oxidases; 1.69333e-10, pre-incubation 2 h
  Fig. 2B activity: 105.759
Lysyl oxidases; 1.69333e-10, pre-incubation 4 h
  Fig. 2B activity: 111.637
Lysyl oxidases; 5.08e-10, pre-incubation 0 min
  Fig. 2B activity: 102.267
Lysyl oxidases; 5.08e-10, pre-incubation 15 min
  Fig. 2B activity: 101.228
Lysyl oxidases; 5.08e-10, pre-incubation 30 min
  Fig. 2B activity: 106.873
Lysyl oxidases; 5.08e-10, pre-incubation 1 h
  Fig. 2B activity: 98.3282
Lysyl oxidases; 5.08e-10, pre-incubation 2 h
  Fig. 2B activity: 107.568
Lysyl oxidases; 5.08e-10, pre-incubation 4 h
  Fig. 2B activity: 110.707
Lysyl oxidases; 1.52e-9, pre-incubation 0 min
  Fig. 2B activity: 101.124
Lysyl oxidases; 1.52e-9, pre-incubation 15 min
  Fig. 2B activity: 102.218
Lysyl oxidases; 1.52e-9, pre-incubation 30 min
  Fig. 2B activity: 107.03
Lysyl oxidases; 1.52e-9, pre-incubation 1 h
  Fig. 2B activity: 103.614
Lysyl oxidases; 1.52e-9, pre-incubation 2 h
  Fig. 2B activity: 102.685
Lysyl oxidases; 1.52e-9, pre-incubation 4 h
  Fig. 2B activity: 110.751
Lysyl oxidases; 4.57e-9, pre-incubation 0 min
  Fig. 2B activity: 99.5583
Lysyl oxidases; 4.57e-9, pre-incubation 15 min
  Fig. 2B activity: 100.144
Lysyl oxidases; 4.57e-9, pre-incubation 30 min
  Fig. 2B activity: 103.756
Lysyl oxidases; 4.57e-9, pre-incubation 1 h
  Fig. 2B activity: 101.013
Lysyl oxidases; 4.57e-9, pre-incubation 2 h
  Fig. 2B activity: 107.904
Lysyl oxidases; 4.57e-9, pre-incubation 4 h
  Fig. 2B activity: 105.302
Lysyl oxidases; 1.37e-8, pre-incubation 0 min
  Fig. 2B activity: 96.8423
Lysyl oxidases; 1.37e-8, pre-incubation 15 min
  Fig. 2B activity: 98.2429
Lysyl oxidases; 1.37e-8, pre-incubation 30 min
  Fig. 2B activity: 101.141
Lysyl oxidases; 1.37e-8, pre-incubation 1 h
  Fig. 2B activity: 101.758
Lysyl oxidases; 1.37e-8, pre-incubation 2 h
  Fig. 2B activity: 104.569
Lysyl oxidases; 1.37e-8, pre-incubation 4 h
  Fig. 2B activity: 105.34
Lysyl oxidases; 4.12e-8, pre-incubation 0 min
  Fig. 2B activity: 98.5025
Lysyl oxidases; 4.12e-8, pre-incubation 15 min
  Fig. 2B activity: 98.7481
Lysyl oxidases; 4.12e-8, pre-incubation 30 min
  Fig. 2B activity: 99.9026
Lysyl oxidases; 4.12e-8, pre-incubation 1 h
  Fig. 2B activity: 99.6216
Lysyl oxidases; 4.12e-8, pre-incubation 2 h
  Fig. 2B activity: 100.024
Lysyl oxidases; 4.12e-8, pre-incubation 4 h
  Fig. 2B activity: 98.7222
Lysyl oxidases; 1.23e-7, pre-incubation 0 min
  Fig. 2B activity: 98.6918
Lysyl oxidases; 1.23e-7, pre-incubation 15 min
  Fig. 2B activity: 98.1432
Lysyl oxidases; 1.23e-7, pre-incubation 30 min
  Fig. 2B activity: 101.367
Lysyl oxidases; 1.23e-7, pre-incubation 1 h
  Fig. 2B activity: 90.8141
Lysyl oxidases; 1.23e-7, pre-incubation 2 h
  Fig. 2B activity: 90.2595
Lysyl oxidases; 1.23e-7, pre-incubation 4 h
  Fig. 2B activity: 86.2099
Lysyl oxidases; 3.7e-7, pre-incubation 0 min
  Fig. 2B activity: 96.5147
Lysyl oxidases; 3.7e-7, pre-incubation 15 min
  Fig. 2B activity: 94.9326
Lysyl oxidases; 3.7e-7, pre-incubation 30 min
  Fig. 2B activity: 97.5329
Lysyl oxidases; 3.7e-7, pre-incubation 1 h
  Fig. 2B activity: 85.2822
Lysyl oxidases; 3.7e-7, pre-incubation 2 h
  Fig. 2B activity: 74.251
Lysyl oxidases; 3.7e-7, pre-incubation 4 h
  Fig. 2B activity: 62.6684
Lysyl oxidases; 1.11e-6, pre-incubation 0 min
  Fig. 2B activity: 94.3157
Lysyl oxidases; 1.11e-6, pre-incubation 15 min
  Fig. 2B activity: 89.9671
Lysyl oxidases; 1.11e-6, pre-incubation 30 min
  Fig. 2B activity: 87.3566
Lysyl oxidases; 1.11e-6, pre-incubation 1 h
  Fig. 2B activity: 64.8977
Lysyl oxidases; 1.11e-6, pre-incubation 2 h
  Fig. 2B activity: 45.9612
Lysyl oxidases; 1.11e-6, pre-incubation 4 h
  Fig. 2B activity: 15.2083
Lysyl oxidases; 3.33e-6, pre-incubation 0 min
  Fig. 2B activity: 92.0439
Lysyl oxidases; 3.33e-6, pre-incubation 15 min
  Fig. 2B activity: 82.8346
Lysyl oxidases; 3.33e-6, pre-incubation 30 min
  Fig. 2B activity: 63.1887
Lysyl oxidases; 3.33e-6, pre-incubation 1 h
  Fig. 2B activity: 32.0154
Lysyl oxidases; 3.33e-6, pre-incubation 2 h
  Fig. 2B activity: 13.0848
Lysyl oxidases; 3.33e-6, pre-incubation 4 h
  Fig. 2B activity: 1.062
Lysyl oxidases; 10 µM, after 2 h
  inhibition of the least sensitive lysyl oxidase: complete inhibition
Lysyl oxidases; 1e-5, pre-incubation 0 min
  Fig. 2B activity: 71.7944
Lysyl oxidases; 1e-5, pre-incubation 15 min
  Fig. 2B activity: 51.1738
Lysyl oxidases; 1e-5, pre-incubation 30 min
  Fig. 2B activity: 24.7148
Lysyl oxidases; 1e-5, pre-incubation 1 h
  Fig. 2B activity: 3.779
Lysyl oxidases; 1e-5, pre-incubation 2 h
  Fig. 2B activity: 2.199
Lysyl oxidases; 1e-5, pre-incubation 4 h
  Fig. 2B activity: 0.1194
Lysyl oxidases; 3e-5, pre-incubation 0 min
  Fig. 2B activity: 46.8993
Lysyl oxidases; 3e-5, pre-incubation 15 min
  Fig. 2B activity: 20.2974
Lysyl oxidases; 3e-5, pre-incubation 30 min
  Fig. 2B activity: 5.217
Lysyl oxidases; 3e-5, pre-incubation 1 h
  Fig. 2B activity: 1.087
Lysyl oxidases; 3e-5, pre-incubation 2 h
  Fig. 2B activity: 2.027
Lysyl oxidases; 3e-5, pre-incubation 4 h
  Fig. 2B activity: -1.502
Phorbol Ester
  % Inh.: 5%
Adenosine A3
  inhibition at 10 µM: 4%
[3]
  collagen I production (soluble procollagen I): significant and sustained reduction

## NC/C=C(\F)C(F)(F)S(=O)(=O)c1ccccc1 [PXS-6302]
Vasopressin V1A
  inhibition at 30 µM: 3%
